Legend:
BM cells = details: 100 ng intraperitoneal for 3 consecutive days; 2 months after BMT; versus control BMT
Experimental: To examine the effect of VEGF on BM cell mobilization, we injected the mice with 100 ng VEGF-C intaperitoneally for 3 days.
Freshly isolated BM cells or PB cells were subjected to FluoReporter lacZ Flow Cytometry Kit (Molecular Probes, OR) or stained with acetylated low-density lipoprotein (LDL) labeled with 1′-dioctadecyl1-1,3,3,3′-tetramethyl-indocarbocyanine; Di-I (Biomedical Technologies Inc, MA) as described previously [13]. Analysis was performed on a FACStar flow cytometer (Becton Dickinson) and Cell Quest Software counting 10,000 events per sample.
Accordingly, we treated recipient mice with VEGF protein and analyzed the kinetics of mobilization of BM cells by FACS analysis.
The means±S.E. from 9 independent experiments are presented. *, p<0.01, **, p<0.05 versus control BMT (FIG. 2A).

EPC [1] = test: β-galactosidase activity in EPC transduced with type 2 AAV, with or without genistein; format: cell-based, rats
Experimental: (§1) EPC Culture and Expansion. Peripheral blood (about 1 ml) was obtained from the hearts of rats and mononuclear cells were isolated by density gradient centrifugation and cultured for 5 days. EPC were expanded ex vivo as described above.
(§2) Transduction of EPC. EPC cultures were infected with type 2 AAV-lacZ (also referred to herein as AAV-lacZ(+)) (control) vectors or AAV-IGF-1 vectors, prepared as described above, using approximately 3000 particles/cell. Some cultures were treated for about 1 hour with genistein, a specific inhibitor of cellular protein tyrosine kinases, (2-40 μM, preferably about 20 μM). Control vectors used in the genistein experiments also included AAV vector without lacZ, designated AAVlacZ(−).
AAV-IGF-1 mRNA expression in EPCs was determined by RT-PCR assay using primers specific for human IGF-1 sequences. The primer sequences used in these studies are as shown:
To determine whether efficiency of rAAV transduction of cultured EPC can be enhanced by inhibiting protein tyrosine kinases in these cells, some EPC cultures were pretreated with genestein prior to infection with rAAV, as described above. Referring to FIG. 5, in cultures infected with AAVlacZ(−) control vector, β-gal activity was negligible. In cultures infected with AAVlacZ(+) without or with pretreatment with 20 μM genistein, β-gal activity was 3.35 vs. 12.09, respectively. […]

EPC [2] = test: RT-PCR assay of AAV-IGF-1 mRNA expression in transduced EPC, with or without genistein; format: cell-based, rats
Experimental: as §1, §2
One week after infection, the cells were analyzed for β-galactosidase activity. AAV-IGF-1 mRNA expression in EPCs was determined by RT-PCR assay using primers specific for human IGF-1 sequences. The primer sequences used in these studies are as shown: […]

| Compound | β-gal expression in both PB and BM of recipient mice (BM cells) | increase of lacZ activity by genistein (EPC [1]; 20 μM genistein versus no genistein, AAVlacZ(+)) | β-gal activity (EPC [1]; 14 days after transduction, AAVlacZ(+)-infected EPC pretreated with 20 μM genistein) | AAV-mediated IGF-1 expression (mRNA, RT-PCR) (EPC [2]; AAV-IGF-1 transduced EPC following treatment with genistein) | increase of IGF-1 expression from AAV by genistein (EPC [2]; genistein versus no genistein) |
| --- | --- | --- | --- | --- | --- |
| VEGF | significantly increased |  |  |  |  |
| O=c1c(-c2ccc(O)cc2)coc2cc(O)cc(O)c12 [genistein] |  | approximately four-fold | 12.09 | 206.1 units | about seven-fold |

From patent US20100028312A1, “Stably transformed bone marrow-derived cells and uses thereof” (Caritas St. Elizabeth Medical Center of Boston Inc, priority 2005, published 2010)
